In ChEMBL document CHEMBL1201862, “PubChem BioAssay data set” (2004):
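Tested at 5 concentrations; 48 h exposure; 96-well plates; endpoints linearly interpolated, else capped at highest concentration. Abbreviation: GI50, concentration required for 50% inhibition of growth.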 Active and inactive are the calls of the source. Rule as the data show it: active = GI50 up to about 1.1 µM and inactive = higher.

Columns and labels:
Assay in all cases: growth of human tumour cells (NCI), 48 h
[1] = test system: NCI-H460
[2] = test system: HCT-15
[3] = test system: RXF 393
[4] = test system: DMS-273
[5] = test system: CAKI-1
[6] = test system: OVCAR-8
[7] = test system: MDA-MB-231
[8] = test system: SNB-78
[9] = test system: XF498
[10] = test system: RPMI-8226
[11] = test system: OVCAR-4
[12] = test system: HOP-62
[13] = test system: CCRF-CEM
[14] = test system: MOLT-4
[15] = test system: OVCAR-3
[16] = test system: HOP-92
[17] = test system: SF-295
[18] = test system: Hs-578T
[19] = test system: KM-20L2
[20] = test system: DU-145
[21] = test system: DLD-1
[22] = test system: HOP-18
[23] = test system: BT-549
[24] = test system: T47D
[25] = test system: DMS-114
[26] = test system: M19-MEL
[27] = test system: LXFL 529
[28] = test system: SNB-19
[29] = test system: MCF7
[30] = test system: MDA-MB-435
[31] = test system: K562
[32] = test system: MDA-N
[33] = test system: SK-MEL-2
[34] = test system: NCI/ADR-RES
[35] = test system: SR
[36] = test system: HL-60
[37] = test system: PC-3
[38] = test system: 786-0
[39] = test system: TK-10
[40] = test system: NCI-H226
[41] = test system: Malme-3M
[42] = test system: KM12
[43] = test system: RXF 631
[44] = test system: UO-31
[45] = test system: COLO 205
[46] = test system: SK-MEL-5
[47] = test system: M14
[48] = test system: SNB-75
[49] = test system: NCI-H522
[50] = test system: IGROV-1
[51] = test system: SK-MEL-28
[52] = test system: OVCAR-5
[53] = test system: A498
[54] = test system: SK-OV-3
[55] = test system: U-251
[56] = test system: LOX IMVI
[57] = test system: HT-29
[58] = test system: SN12C
[59] = test system: EKVX
[60] = test system: UACC-257
[61] = test system: SW-620
[62] = test system: ACHN
[63] = test system: SF-268
[64] = test system: UACC-62
[65] = test system: HCT-116
[66] = test system: HCC 2998
[67] = test system: NCI-H23
[68] = test system: A549

SMILES: COC(=O)C1c2cc3c(c(O)c2C(O)CC1(C)O)C(=O)c1c(O)cc2c(c1C3=O)OC1OC2(C)C(O)C(N(C)C)C1O (configuration not stated)
- GI50 [1]: > 100 µM (inactive)
- GI50 [2]: 11.3 µM
- GI50 [3]: 12.4 µM (inactive)
- GI50 [4]: > 100 µM (inactive)
- GI50 [5]: 3.28 µM (inactive)
- GI50 [6]: 11.7 µM (inactive)
- GI50 [7]: 1.31 µM (inactive)
- GI50 [8]: > 100 µM (inactive)
- GI50 [9]: > 100 µM (inactive)
- GI50 [10]: 10.9 µM (inactive)
- GI50 [11]: 12.9 µM (inactive)
- GI50 [12]: 12.7 µM (inactive)
- GI50 [13]: 6.37 µM (inactive)
- GI50 [14]: 6.08 µM (inactive)
- GI50 [15]: 12.7 µM (inactive)
- GI50 [16]: 26.8 µM (inactive)
- GI50 [17]: 12.4 µM (inactive)
- GI50 [18]: 1.43 µM (inactive)
- GI50 [19]: > 100 µM (inactive)
- GI50 [20]: 1.7 µM (inactive)
- GI50 [21]: > 100 µM (inactive)
- GI50 [22]: > 100 µM (inactive)
- GI50 [23]: 4.9 µM (inactive)
- GI50 [24]: 1.71 µM (inactive)
- GI50 [25]: > 100 µM (inactive)
- GI50 [26]: > 100 µM (inactive)
- GI50 [27]: > 100 µM (inactive)
- GI50 [28]: 7.06 µM (inactive)
- GI50 [29]: 1.35 µM (inactive)
- GI50 [30]: 1.75 µM (inactive)
- GI50 [31]: 11.3 µM (inactive)
- GI50 [32]: 1.57 µM (inactive)
- GI50 [33]: > 100 µM (inactive)
- GI50 [34]: 1.64 µM (inactive)
- GI50 [35]: 8.49 µM (inactive)
- GI50 [36]: 12.6 µM (inactive)
- GI50 [37]: 1.2 µM (inactive)

SMILES: Cc1ccc(S(=O)(=O)OCCOCCOCCOCCOCCOS(=O)(=O)c2ccc(C)cc2)cc1
- GI50 [1]: 36.7 µM (inactive)
- GI50 [38]: 62.8 µM (inactive)
- GI50 [39]: 36.7 µM (inactive)
- GI50 [2]: 55.6 µM
- GI50 [3]: > 100 µM (inactive)
- GI50 [40]: 33.5 µM (inactive)
- GI50 [4]: 28.6 µM (inactive)
- GI50 [41]: 73.6 µM (inactive)
- GI50 [5]: 47.1 µM (inactive)
- GI50 [42]: 55.7 µM (inactive)
- GI50 [43]: 27.1 µM (inactive)
- GI50 [6]: 22.6 µM (inactive)
- GI50 [44]: 28.8 µM (inactive)
- GI50 [8]: 83.9 µM (inactive)
- GI50 [10]: 33.5 µM (inactive)
- GI50 [11]: 51.3 µM (inactive)
- GI50 [12]: 30.1 µM (inactive)
- GI50 [45]: 17.2 µM (inactive)
- GI50 [13]: 21.4 µM (inactive)
- GI50 [46]: 18.4 µM (inactive)
- GI50 [14]: 14.4 µM (inactive)
- GI50 [47]: 45.1 µM (inactive)
- GI50 [48]: > 100 µM (inactive)
- GI50 [15]: 21.7 µM (inactive)
- GI50 [49]: 23.7 µM (inactive)
- GI50 [16]: 35.7 µM (inactive)
- GI50 [50]: 79.8 µM (inactive)
- GI50 [17]: 50.7 µM (inactive)
- GI50 [51]: > 100 µM (inactive)
- GI50 [52]: > 100 µM (inactive)
- GI50 [53]: 44.4 µM (inactive)
- GI50 [54]: > 100 µM (inactive)
- GI50 [19]: 59.2 µM (inactive)
- GI50 [55]: 58.3 µM (inactive)
- GI50 [56]: 45.2 µM (inactive)
- GI50 [21]: 60.8 µM (inactive)
- GI50 [22]: 65.3 µM (inactive)
- GI50 [57]: 28.3 µM (inactive)
- GI50 [26]: 30.3 µM (inactive)
- GI50 [27]: 33.7 µM (inactive)
- GI50 [28]: > 100 µM (inactive)
- GI50 [58]: 39.7 µM (inactive)
- GI50 [59]: 94.2 µM (inactive)
- GI50 [60]: 25 µM (inactive)
- GI50 [61]: 91.2 µM (inactive)
- GI50 [31]: 31.7 µM (inactive)
- GI50 [62]: 36.6 µM (inactive)
- GI50 [33]: 41.5 µM (inactive)
- GI50 [63]: > 100 µM (inactive)
- GI50 [35]: 54.3 µM (inactive)
- GI50 [64]: 61.4 µM (inactive)
- GI50 [65]: 52.5 µM (inactive)
- GI50 [66]: 41.6 µM (inactive)
- GI50 [67]: 21.3 µM (inactive)
- GI50 [68]: 69.8 µM (inactive)
